Data as given in patent US20230116972A1, “CD38 MODULATORS AND METHODS OF USE THEREOF” (Cytokinetics, Inc., priority 2021, published 2023).
Like-named read-outs stand apart in the source and are kept apart here.

Experiments:
[1] = tested on: nicotinamide levels in mouse tissues; test: tissue levels of nicotinamide in aged C57BL/6 mice after oral administration; type: in vivo; details: 100 mg/kg BID oral, 72-week-old male C57BL/6J mice, 4 h after the 3rd administration, vs vehicle, FIG. 1
Experimental: 0.1% Tween 80/0.5% HPMC or compound 148 prepared with 0.1% Tween 80/0.5% HPMC was orally administered at 100 mg/kg BID to 72-week-old male C57BL/6J mice. 4 h after the 3rd administration, each mouse was euthanized, and tissues collected.
Whole blood was collected and placed into pre-chilled K2EDTA microtainer tube, rotated 3-4 times to ensure anticoagulant mixing. An aliquot from the whole blood collection was added to 10 volumes of 0.5M PCA (perchloric acid), inverted 3-4 times to mix well, and then frozen on dry ice. While under isoflurane after cardiac puncture for blood collection, the following tissues were harvested in this order: heart, liver lobe, then by brain. All tissues were processed using pre-chilled freeze clamp. The frozen tissues were placed in pre-frozen labeled 2 mL Eppendorf tubes. The tissues were stored at −80° C. until processing. Upon processing, each tissue was cryomilled in the frozen state to form a powder. Frozen powdered tissue was weighed into pre-frozen tubes. Approximately 10 volumes of 0.5M PCA per weight of tissue were added to the tube followed by freezing until analysis. Upon analysis, blood and tissue samples were thawed on ice, followed by homogenization via TissueLyzer. Samples were centrifuged, the supernatant was collected and filtered, and the nicotinamide concentration in the supernatant of sample was measured using LC/MS.

CYP1A2 = target: T1, CYP1A2 (Homo sapiens, UniProt P05177); test: time dependent inhibition of CYP450 in pooled human microsomes; type: in vitro ADME
T1 construct: from tissue; host or cells: human liver microsomes (pooled in the time-dependent assay)
T1 sequence (P05177 1-516): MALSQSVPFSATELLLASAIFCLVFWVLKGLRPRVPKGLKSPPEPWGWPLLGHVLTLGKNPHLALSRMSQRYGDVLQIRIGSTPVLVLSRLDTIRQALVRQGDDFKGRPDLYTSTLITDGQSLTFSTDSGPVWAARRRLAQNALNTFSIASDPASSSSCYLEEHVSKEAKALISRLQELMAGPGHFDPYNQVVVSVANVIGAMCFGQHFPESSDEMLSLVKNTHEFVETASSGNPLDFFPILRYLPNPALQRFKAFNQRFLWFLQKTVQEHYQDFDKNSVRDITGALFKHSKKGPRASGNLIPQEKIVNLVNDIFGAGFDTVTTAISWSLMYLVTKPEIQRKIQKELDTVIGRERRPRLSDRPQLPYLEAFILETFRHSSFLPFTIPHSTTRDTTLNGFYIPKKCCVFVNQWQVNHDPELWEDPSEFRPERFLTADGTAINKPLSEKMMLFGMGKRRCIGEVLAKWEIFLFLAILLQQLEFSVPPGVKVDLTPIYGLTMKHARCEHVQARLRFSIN
Experimental: (§1) Time dependent inhibition: An assessment of the time-dependent Inhibitory potential of test compounds against the principal human cytochrome P450 isozymes was carried out using standard methods (Grimm et al, “The Conduct of in Vitro Studies to Address Time-Dependent Inhibition of Drug-Metabolizing Enzymes: A Perspective of the Pharmaceutical Research and Manufacturers of America”, Drug Metabolism and Disposition, 37 (7): 1355, 2009). […] Each compound was pre-incubated at 37° C. plus and minus NADPH for 30 min, and with 0 min pre-incubation for assessment of potential time dependent inhibition. LC-MS/MS was used to quantify metabolite formation. […] Note that, in Tables 8 and 9, the “Compound No” corresponds to the compound numbers in Table 1.

CYP2B6 = target: T2, CYP2B6 (Homo sapiens, UniProt P20813); test: as above; type: in vitro ADME
T2 construct: from tissue; host or cells: human liver microsomes (pooled in the time-dependent assay)
T2 sequence (P20813 1-491): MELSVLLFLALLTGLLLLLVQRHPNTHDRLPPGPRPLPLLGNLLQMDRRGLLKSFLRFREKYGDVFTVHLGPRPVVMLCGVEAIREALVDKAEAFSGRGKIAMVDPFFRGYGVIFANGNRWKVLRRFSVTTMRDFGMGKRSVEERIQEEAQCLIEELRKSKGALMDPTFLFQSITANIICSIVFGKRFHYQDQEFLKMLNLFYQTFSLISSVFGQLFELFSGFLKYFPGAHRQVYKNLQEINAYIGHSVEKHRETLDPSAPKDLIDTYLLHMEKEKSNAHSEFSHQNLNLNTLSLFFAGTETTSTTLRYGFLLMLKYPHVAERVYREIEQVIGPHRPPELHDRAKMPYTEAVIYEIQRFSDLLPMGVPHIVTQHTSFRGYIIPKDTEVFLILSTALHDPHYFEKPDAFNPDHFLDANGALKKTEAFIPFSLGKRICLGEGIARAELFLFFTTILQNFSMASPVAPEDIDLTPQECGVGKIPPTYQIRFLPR
Experimental: as §1

CYP2C19 = target: T3, CYP2C19 (Homo sapiens, UniProt P33261); test: as above; type: in vitro ADME
T3 construct: from tissue; host or cells: human liver microsomes (pooled in the time-dependent assay)
Experimental: as §1

CYP2C9 = target: T4, CYP2C9 (Homo sapiens, UniProt P11712); test: as above; type: in vitro ADME
T4 construct: from tissue; host or cells: human liver microsomes (pooled in the time-dependent assay)
Experimental: as §1

CYP2D6 = target: T5, CYP2D6 (Homo sapiens, UniProt P10635); test: as above; type: in vitro ADME
T5 construct: from tissue; host or cells: human liver microsomes (pooled in the time-dependent assay)
Experimental: as §1

CYP3A4 = target: T6, CYP3A4 (Homo sapiens, UniProt P08684); test: as above; type: in vitro ADME
T6 construct: from tissue; host or cells: human liver microsomes (pooled in the time-dependent assay)
Experimental: as §1

[2] = tested on: human hepatic cytochrome P450 isozymes (CYP1A2, 2B6, 2C8, 2C9, 2C19, 2D6, and 3A4); test: time dependent inhibition, statement over all isozymes tested; type: in vitro ADME; details: any isozymes; pooled human microsomes; no indication of time dependent inhibition
Experimental: as §1

[3] = between 30 min pre-incubation plus NADPH and 0 min
[4] = pre-incubation 30 min (NO NADPH)

T6 sequence (P08684 whole entry): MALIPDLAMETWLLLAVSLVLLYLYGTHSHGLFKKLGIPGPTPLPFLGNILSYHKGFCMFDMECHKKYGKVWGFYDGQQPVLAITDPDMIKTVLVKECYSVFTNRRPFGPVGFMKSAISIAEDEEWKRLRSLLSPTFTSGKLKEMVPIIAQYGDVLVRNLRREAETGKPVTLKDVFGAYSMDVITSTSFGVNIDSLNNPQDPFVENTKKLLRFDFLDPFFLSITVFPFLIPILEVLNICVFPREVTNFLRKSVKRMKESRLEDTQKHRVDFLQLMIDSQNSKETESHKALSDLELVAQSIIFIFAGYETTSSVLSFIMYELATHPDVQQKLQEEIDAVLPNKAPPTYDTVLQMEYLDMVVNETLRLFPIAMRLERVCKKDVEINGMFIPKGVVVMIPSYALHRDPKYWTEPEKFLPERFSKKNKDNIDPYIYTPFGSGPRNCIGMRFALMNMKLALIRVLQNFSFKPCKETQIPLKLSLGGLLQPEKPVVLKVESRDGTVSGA
T3 sequence (P33261 whole entry): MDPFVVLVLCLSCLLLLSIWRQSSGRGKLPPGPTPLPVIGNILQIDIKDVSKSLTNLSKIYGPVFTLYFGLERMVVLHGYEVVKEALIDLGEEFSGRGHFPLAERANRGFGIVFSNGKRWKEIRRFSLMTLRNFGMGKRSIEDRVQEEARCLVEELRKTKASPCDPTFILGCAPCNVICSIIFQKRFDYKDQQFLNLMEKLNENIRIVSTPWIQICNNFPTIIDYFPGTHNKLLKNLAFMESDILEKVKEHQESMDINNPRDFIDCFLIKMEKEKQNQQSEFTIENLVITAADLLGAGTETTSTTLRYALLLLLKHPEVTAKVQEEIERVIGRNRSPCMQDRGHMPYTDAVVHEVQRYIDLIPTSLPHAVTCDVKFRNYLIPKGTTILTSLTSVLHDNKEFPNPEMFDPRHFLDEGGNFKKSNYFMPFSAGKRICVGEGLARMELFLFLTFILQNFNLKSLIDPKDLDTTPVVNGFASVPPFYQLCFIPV
T4 sequence (P11712 whole entry): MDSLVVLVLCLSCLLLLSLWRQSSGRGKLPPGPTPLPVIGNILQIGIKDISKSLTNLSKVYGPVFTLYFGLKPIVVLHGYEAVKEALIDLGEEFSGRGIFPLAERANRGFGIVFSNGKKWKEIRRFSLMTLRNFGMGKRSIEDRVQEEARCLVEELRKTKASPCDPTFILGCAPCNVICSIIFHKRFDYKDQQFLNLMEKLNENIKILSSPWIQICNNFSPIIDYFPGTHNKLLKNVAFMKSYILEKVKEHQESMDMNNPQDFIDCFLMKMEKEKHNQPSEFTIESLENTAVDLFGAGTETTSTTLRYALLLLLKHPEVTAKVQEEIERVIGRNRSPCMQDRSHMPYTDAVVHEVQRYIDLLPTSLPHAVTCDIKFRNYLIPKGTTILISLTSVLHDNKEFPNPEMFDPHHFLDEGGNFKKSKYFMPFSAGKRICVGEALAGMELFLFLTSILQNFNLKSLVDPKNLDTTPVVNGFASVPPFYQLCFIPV
T5 sequence (P10635 whole entry): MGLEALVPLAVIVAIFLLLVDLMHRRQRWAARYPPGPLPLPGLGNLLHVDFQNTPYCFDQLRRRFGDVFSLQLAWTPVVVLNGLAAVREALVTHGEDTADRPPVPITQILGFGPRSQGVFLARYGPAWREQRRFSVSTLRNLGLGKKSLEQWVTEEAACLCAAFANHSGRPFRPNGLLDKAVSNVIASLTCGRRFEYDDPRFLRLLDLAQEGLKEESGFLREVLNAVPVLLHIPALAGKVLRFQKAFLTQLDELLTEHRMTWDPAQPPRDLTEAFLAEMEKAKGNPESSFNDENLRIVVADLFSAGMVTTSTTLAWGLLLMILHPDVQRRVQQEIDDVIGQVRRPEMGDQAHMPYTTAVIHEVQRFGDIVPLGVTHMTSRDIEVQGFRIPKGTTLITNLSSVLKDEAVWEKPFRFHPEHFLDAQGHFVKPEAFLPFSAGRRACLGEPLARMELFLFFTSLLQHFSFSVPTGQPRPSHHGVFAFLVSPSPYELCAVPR

For CO[C@H]1CC[C@H](NC(=O)c2nccc(-c3cncn3C)n2)CC1 [Compound 148, N-((1r,4r)-4-methoxycyclohexyl)-4-(1-methyl-1H-imidazol-5-yl)pyrimidine-2-carboxamide], the “nicotinamide levels in blood” value ([1]; blood) was “decreased”, the “nicotinamide levels in brain” value ([1]; brain) was “decreased” and the “nicotinamide levels in heart” value ([1]; heart) was “decreased”. For the same compound, the “nicotinamide levels in liver” value ([1]; liver) was “decreased”, the IC50 (CYP1A2; 0 min pre-incubation, pooled human microsomes, read-out: IC50 CYP1A2 (reversible inhibition)) was 10 µM and the “CYP1A2 IC50 fold shift” value (CYP1A2; [3]) was 0.8. It also gave an IC50 (CYP1A2; pre-incubation 30 min (NADPH), read-out: CYP1A2 IC50) of 11.8 µM, an IC50 (CYP1A2; pre-incubation 30 min (NO NADPH), read-out: CYP1A2 IC50) of 12 µM and an IC50 (CYP2B6; 0 min pre-incubation, pooled human microsomes, read-out: IC50 CYP2B6 (reversible inhibition)) of 26.2 µM. The “CYP2B6 IC50 fold shift” value (CYP2B6; [3]) was “none”, the IC50 (CYP2B6; pre-incubation 30 min (NADPH), read-out: CYP2B6 IC50) was over 30 µM and the IC50 (CYP2B6; pre-incubation 30 min (NO NADPH), read-out: CYP2B6 IC50) was 24.4 µM. The “CYP2C19 IC50 fold shift” value (CYP2C19; [3]) was “none”, the IC50 (CYP2C19; pre-incubation 0 min) was over 30 µM and the IC50 (CYP2C19; pre-incubation 30 min (NADPH)) was over 30 µM. For the same compound, the IC50 (CYP2C19; [4]) was over 30 µM, the “CYP2C9 IC50 fold shift” value (CYP2C9; [3]) was “none” and the IC50 (CYP2C9; pre-incubation 0 min) was over 30 µM. For the same compound, the IC50 (CYP2C9; pre-incubation 30 min (NADPH)) was over 30 µM, the IC50 (CYP2C9; [4]) was over 30 µM and the IC50 (CYP2D6; 0 min pre-incubation, pooled human microsomes, read-out: IC50 CYP2D6 (reversible inhibition)) was 13.7 µM. The “CYP2D6 IC50 fold shift” value (CYP2D6; [3]) was 1.1, the IC50 (CYP2D6; pre-incubation 30 min (NADPH), read-out: CYP2D6 IC50) was 12.3 µM and the IC50 (CYP2D6; pre-incubation 30 min (NO NADPH), read-out: CYP2D6 IC50) was 9.1 µM. The “CYP3A4-M IC50 fold shift” value (CYP3A4; [3]) was “none”, the “CYP3A4-T IC50 fold shift” value (CYP3A4; [3]) was “none” and the IC50 (CYP3A4; pre-incubation 0 min, read-out: CYP3A4-M IC50) was over 30 µM. It also gave an IC50 (CYP3A4; pre-incubation 0 min, read-out: CYP3A4-T IC50) of over 30 µM, an IC50 (CYP3A4; pre-incubation 30 min (NADPH), read-out: CYP3A4-M IC50) of over 30 µM and an IC50 (CYP3A4; pre-incubation 30 min (NADPH), read-out: CYP3A4-T IC50) of over 30 µM. The IC50 (CYP3A4; pre-incubation 30 min (NO NADPH), read-out: CYP3A4-M IC50) was over 30 µM, the IC50 (CYP3A4; pre-incubation 30 min (NO NADPH), read-out: CYP3A4-T IC50) was over 30 µM and the “IC50 fold shift between 30 min pre-incubation plus NADPH and 0 min preincubation” value [2] was at most 1.5 fold.
